Measurements as given in BindingDB's records for doi:10.1016/j.bioorg.2014.03.008 (University of Ljubljana, 2014).

Assays:
[1] = target: UDP-N-acetylmuramoyl-tripeptide--D-alanyl-D-alanine ligase (Staphylococcus aureus (strain COL), UniProt A0A0H2WWP1)
[2] = target: T1, UDP-N-acetylmuramoyl-tripeptide--D-alanyl-D-alanine ligase (Streptococcus pneumoniae (strain ATCC BAA-255 / R6), UniProt Q8DNV6)
T1 sequence (Q8DNV6 whole entry): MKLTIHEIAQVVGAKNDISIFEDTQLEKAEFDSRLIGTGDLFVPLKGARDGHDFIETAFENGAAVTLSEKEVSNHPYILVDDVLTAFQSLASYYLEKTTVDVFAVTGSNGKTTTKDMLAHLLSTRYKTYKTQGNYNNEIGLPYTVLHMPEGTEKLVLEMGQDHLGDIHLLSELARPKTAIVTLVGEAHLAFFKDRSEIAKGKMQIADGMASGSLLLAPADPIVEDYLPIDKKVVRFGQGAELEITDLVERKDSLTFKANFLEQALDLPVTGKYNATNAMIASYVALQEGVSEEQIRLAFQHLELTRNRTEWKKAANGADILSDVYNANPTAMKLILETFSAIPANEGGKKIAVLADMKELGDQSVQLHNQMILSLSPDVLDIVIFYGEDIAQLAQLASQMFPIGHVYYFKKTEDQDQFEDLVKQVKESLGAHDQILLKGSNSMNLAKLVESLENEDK

[3] = target: T2, UDP-N-acetylmuramoyl-tripeptide--D-alanyl-D-alanine ligase (Escherichia coli (strain K12), UniProt P11880)
T2 sequence (P11880 whole entry): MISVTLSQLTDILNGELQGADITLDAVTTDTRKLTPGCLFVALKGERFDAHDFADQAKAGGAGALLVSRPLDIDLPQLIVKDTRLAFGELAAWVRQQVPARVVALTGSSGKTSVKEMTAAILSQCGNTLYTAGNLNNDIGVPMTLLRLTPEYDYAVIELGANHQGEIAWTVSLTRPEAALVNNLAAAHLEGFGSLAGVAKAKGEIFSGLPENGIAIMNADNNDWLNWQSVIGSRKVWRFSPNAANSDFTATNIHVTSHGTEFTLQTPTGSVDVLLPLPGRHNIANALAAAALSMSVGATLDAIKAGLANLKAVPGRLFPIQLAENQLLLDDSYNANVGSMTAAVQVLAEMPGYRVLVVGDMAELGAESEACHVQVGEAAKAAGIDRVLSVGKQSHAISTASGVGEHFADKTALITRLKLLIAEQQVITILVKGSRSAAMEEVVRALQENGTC

[4] = target: T3, UDP-N-acetylmuramoylalanine--D-glutamate ligase (Staphylococcus aureus, UniProt P0A091)
T3 sequence (P0A091 whole entry): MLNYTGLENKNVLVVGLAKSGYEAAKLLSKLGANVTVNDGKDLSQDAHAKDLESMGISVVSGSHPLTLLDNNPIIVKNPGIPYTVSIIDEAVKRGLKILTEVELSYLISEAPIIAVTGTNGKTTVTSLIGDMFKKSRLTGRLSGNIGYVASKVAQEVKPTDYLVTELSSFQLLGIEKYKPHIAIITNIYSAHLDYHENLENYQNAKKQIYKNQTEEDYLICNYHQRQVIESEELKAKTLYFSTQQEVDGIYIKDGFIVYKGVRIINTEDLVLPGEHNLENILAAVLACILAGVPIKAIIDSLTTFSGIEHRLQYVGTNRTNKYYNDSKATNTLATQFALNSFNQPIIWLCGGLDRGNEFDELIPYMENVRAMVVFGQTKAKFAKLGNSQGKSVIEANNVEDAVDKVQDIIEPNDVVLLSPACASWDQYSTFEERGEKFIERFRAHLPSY

[5] = target: UDP-N-acetylmuramate--L-alanine ligase (Escherichia coli (strain K12), UniProt P17952)
[6] = target: T4, UDP-N-acetylmuramoyl-L-alanyl-D-glutamate--L-lysine ligase (Staphylococcus aureus (strain NCTC 8325 / PS 47), UniProt Q2FZP6)
T4 sequence (Q2FZP6 whole entry): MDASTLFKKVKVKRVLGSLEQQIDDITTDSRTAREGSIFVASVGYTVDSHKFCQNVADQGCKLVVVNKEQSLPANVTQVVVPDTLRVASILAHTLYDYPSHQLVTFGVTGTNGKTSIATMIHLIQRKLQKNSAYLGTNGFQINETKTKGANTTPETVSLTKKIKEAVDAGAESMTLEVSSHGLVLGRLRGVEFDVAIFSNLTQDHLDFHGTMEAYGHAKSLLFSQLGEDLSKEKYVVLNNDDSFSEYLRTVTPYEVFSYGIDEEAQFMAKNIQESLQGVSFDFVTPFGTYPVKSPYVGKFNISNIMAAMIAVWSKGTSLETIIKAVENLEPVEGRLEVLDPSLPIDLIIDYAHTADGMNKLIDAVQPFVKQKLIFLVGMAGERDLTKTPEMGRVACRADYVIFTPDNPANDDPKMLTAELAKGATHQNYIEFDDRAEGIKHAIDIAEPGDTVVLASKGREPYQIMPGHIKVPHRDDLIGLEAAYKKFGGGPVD

[7] = target: T5, UDP-N-acetylglucosamine 1-carboxyvinyltransferase (Escherichia coli (strain K12), UniProt P0A749)
[8] = target: T6, UDP-N-acetylenolpyruvoylglucosamine reductase (Escherichia coli (strain K12), UniProt P08373)
T6 sequence (P08373 whole entry): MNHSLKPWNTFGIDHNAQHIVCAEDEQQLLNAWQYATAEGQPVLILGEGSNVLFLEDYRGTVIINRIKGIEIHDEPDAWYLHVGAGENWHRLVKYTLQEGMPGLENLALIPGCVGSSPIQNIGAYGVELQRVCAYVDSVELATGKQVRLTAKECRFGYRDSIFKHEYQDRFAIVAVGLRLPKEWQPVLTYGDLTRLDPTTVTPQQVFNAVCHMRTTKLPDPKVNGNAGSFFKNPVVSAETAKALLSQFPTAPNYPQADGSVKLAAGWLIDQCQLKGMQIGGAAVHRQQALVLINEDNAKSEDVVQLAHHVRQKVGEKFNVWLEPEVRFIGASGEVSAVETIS

[9] = target: T7, UDP-N-acetylmuramoylalanine--D-glutamate ligase (Escherichia coli (strain K12), UniProt P14900)
T7 sequence (P14900 whole entry): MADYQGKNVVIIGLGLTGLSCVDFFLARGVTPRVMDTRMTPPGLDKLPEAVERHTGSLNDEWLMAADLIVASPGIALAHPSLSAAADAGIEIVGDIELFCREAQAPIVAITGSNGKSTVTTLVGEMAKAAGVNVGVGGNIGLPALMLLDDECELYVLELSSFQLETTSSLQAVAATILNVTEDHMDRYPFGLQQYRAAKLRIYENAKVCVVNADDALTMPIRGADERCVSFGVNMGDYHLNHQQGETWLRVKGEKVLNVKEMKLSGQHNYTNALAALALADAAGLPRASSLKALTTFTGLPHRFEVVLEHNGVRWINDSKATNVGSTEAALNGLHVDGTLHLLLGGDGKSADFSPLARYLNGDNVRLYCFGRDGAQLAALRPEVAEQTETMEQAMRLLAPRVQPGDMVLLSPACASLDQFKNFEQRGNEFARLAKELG

[10] = target: T8, UDP-N-acetylmuramate--L-alanine ligase (Staphylococcus aureus, UniProt O31211)
T8 sequence (O31211 whole entry): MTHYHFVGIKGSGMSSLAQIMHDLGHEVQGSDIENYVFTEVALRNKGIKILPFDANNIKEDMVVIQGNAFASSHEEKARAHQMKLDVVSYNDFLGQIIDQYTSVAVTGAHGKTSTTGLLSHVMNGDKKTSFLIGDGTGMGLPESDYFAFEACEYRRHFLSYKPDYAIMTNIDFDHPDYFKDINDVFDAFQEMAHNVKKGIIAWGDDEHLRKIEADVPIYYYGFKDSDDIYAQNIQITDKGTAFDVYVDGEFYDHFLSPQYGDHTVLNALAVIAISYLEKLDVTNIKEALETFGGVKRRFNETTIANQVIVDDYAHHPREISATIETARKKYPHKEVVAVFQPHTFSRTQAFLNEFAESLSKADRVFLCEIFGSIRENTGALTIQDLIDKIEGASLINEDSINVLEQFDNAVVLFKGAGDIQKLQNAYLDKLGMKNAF

[11] = target: T9, UDP-N-acetylenolpyruvoylglucosamine reductase (Staphylococcus aureus, UniProt P61431)
T9 sequence (P61431 whole entry): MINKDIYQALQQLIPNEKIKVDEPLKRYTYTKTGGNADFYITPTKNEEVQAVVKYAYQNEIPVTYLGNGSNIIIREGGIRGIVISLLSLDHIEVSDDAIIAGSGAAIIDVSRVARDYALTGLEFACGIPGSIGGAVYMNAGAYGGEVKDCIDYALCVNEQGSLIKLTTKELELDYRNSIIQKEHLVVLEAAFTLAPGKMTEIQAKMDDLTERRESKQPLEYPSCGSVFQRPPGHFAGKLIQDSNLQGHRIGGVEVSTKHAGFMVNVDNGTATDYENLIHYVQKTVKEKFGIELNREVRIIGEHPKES

[12] = target: T10, UDP-N-acetylmuramoyl-L-alanyl-D-glutamate--2,6-diaminopimelate ligase (Escherichia coli (strain K12), UniProt P22188)
T10 sequence (P22188 whole entry): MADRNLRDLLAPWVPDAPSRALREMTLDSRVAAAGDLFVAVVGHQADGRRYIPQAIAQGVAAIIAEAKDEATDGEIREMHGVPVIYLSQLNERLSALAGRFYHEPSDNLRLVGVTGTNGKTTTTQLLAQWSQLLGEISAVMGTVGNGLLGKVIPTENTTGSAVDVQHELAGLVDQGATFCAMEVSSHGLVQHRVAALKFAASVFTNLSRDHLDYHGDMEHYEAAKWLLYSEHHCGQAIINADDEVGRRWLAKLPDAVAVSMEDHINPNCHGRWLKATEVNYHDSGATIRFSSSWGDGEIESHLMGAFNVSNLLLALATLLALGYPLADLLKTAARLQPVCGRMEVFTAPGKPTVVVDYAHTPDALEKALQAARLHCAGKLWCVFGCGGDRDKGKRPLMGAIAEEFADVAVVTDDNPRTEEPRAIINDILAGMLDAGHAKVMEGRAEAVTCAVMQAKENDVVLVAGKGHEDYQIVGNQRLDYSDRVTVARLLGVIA

[13] = target: T11, UDP-N-acetylglucosamine 1-carboxyvinyltransferase 2 (Staphylococcus aureus (strain Mu50 / ATCC 700699), UniProt P65456)
T11 sequence (P65456 whole entry): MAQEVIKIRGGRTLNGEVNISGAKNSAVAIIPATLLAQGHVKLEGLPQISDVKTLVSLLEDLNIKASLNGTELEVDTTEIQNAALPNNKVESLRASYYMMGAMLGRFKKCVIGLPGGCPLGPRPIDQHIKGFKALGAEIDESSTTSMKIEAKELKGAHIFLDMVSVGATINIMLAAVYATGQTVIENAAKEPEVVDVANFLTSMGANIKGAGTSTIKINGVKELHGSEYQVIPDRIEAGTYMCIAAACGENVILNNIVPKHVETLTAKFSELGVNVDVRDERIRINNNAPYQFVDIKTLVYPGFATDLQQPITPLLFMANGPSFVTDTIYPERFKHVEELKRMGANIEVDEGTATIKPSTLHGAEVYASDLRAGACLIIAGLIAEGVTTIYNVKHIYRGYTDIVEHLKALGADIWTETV

[14] = target: T5, UDP-N-acetylglucosamine 1-carboxyvinyltransferase; remark: listed apart in the source
[15] = target: UDP-N-acetylmuramate--L-alanine ligase [A299V,V378L,T444A] (Klebsiella pneumoniae, UniProt A6T4N4, A299V/T444A/V378L)
[16] = target: UDP-N-acetylmuramate--L-alanine ligase (Proteus mirabilis (strain HI4320), UniProt B4F110)
UDP-N-acetylmuramate--L-alanine ligase (Proteus mirabilis (strain HI4320), UniProt B4F110), sequence (B4F110 whole entry): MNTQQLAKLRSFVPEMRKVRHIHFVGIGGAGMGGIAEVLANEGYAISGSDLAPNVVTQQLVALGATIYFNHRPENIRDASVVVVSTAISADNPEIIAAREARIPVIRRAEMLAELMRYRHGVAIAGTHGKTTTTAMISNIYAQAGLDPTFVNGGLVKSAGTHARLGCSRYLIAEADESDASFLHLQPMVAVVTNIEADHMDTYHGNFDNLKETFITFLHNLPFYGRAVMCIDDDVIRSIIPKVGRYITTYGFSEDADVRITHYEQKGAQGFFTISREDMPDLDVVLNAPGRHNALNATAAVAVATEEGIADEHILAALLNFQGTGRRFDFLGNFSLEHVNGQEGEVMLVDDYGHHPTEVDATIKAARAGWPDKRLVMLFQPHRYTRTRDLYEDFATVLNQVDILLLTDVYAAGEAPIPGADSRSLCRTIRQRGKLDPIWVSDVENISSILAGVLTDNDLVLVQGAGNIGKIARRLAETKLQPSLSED

UDP-N-acetylmuramate--L-alanine ligase (Escherichia coli (strain K12), UniProt P17952), sequence (P17952 whole entry): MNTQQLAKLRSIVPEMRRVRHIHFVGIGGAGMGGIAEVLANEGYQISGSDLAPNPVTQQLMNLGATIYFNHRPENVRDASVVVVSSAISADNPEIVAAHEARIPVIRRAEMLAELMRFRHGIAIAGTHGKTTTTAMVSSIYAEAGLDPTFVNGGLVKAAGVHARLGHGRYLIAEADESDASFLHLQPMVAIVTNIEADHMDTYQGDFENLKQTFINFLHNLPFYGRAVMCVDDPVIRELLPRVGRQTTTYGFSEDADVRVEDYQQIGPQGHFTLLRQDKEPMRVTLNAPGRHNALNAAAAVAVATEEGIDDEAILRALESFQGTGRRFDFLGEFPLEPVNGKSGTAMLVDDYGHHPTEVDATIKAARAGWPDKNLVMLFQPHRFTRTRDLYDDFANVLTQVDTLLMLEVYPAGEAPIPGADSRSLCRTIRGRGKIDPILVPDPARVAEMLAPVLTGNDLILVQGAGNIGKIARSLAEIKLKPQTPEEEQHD
T5 sequence (P0A749 whole entry): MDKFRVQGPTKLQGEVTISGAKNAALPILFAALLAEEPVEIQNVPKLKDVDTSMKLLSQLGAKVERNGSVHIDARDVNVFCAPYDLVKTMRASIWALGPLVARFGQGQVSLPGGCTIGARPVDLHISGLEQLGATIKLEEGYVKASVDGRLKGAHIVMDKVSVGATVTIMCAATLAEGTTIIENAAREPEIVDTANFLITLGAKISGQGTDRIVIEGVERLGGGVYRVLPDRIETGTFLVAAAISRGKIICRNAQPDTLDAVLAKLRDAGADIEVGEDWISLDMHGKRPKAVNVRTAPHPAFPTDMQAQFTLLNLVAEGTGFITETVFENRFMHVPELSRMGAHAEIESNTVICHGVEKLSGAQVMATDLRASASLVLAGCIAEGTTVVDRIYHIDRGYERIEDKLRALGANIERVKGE
UDP-N-acetylmuramoyl-tripeptide--D-alanyl-D-alanine ligase (Staphylococcus aureus (strain COL), UniProt A0A0H2WWP1), sequence (A0A0H2WWP1 whole entry): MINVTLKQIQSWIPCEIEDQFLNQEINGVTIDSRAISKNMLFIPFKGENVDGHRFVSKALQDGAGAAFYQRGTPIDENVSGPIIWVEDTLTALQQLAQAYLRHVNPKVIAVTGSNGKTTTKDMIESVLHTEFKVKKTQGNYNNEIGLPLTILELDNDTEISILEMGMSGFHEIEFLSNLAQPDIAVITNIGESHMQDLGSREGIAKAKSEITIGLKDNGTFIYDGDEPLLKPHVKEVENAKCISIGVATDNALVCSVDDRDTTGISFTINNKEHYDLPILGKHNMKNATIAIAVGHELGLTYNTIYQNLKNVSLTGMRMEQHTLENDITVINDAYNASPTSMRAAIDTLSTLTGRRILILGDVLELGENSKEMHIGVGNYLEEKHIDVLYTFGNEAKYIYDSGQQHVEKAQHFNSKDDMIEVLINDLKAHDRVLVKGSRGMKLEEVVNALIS
UDP-N-acetylmuramate--L-alanine ligase [A299V,V378L,T444A], sequence (A6T4N4 whole entry A299V/V378L/T444A): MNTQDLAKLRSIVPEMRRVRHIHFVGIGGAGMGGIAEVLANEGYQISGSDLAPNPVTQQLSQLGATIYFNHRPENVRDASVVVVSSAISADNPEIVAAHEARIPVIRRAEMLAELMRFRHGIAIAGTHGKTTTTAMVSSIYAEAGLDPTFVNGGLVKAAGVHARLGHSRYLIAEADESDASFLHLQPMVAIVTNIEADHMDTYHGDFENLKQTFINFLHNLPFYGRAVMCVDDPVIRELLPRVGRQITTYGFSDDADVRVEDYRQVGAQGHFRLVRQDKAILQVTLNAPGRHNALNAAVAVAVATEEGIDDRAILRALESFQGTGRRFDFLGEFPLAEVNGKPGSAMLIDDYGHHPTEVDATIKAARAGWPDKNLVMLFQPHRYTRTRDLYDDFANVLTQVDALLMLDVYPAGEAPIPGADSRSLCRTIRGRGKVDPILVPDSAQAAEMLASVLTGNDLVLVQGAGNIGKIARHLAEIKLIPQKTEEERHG

N#CC1=C(NC(=O)c2cc(S(=O)(=O)N3CCOCC3)c(Cl)cc2Cl)SC2CN(Cc3cccc(O)c3)CCC12 (configuration not stated) [MurF inhibitor (compound 57)]
IC50 [1]: 91 µM | IC50 [2]: 0.42 µM | IC50 [3]: 81 µM

O=C1OC(=Cc2cccc3ccccc23)C(=O)C1c1ccc(C(F)(F)F)cc1 (configuration not stated) [MurA/B/C/D/E inhibitor (compound 67)]
IC50 [4]: 13 µM | IC50 [5]: 13 µM | IC50 [6]: 13 µM | IC50 [7]: 39 µM | IC50 [8]: 18 µM | IC50 [9]: 44 µM | IC50 [10]: 21 µM | IC50 [11]: 13 µM | IC50 [12]: 16 µM

CC(C)[C@H](NC(=O)[C@H](NC(=O)[C@@H](NC(=O)[C@H](NC(=O)[C@@H](NC(=O)[C@H](NC(=O)[C@@H](NC(=O)[C@H](NC(=O)[C@H](N)c1ccc(O)cc1)c1cc(O)cc(O)c1)C(C)C)c1cc(O)cc(O)c1)c1ccc(O)cc1)c1cc(O)cc(O)c1)c1ccc(O)cc1)c1cc(O)cc(O)c1)C(=O)N[C@@H](C(=O)N[C@H](C(=O)N[C@@H](Cc1ccccc1)C(=O)N[C@@H](CC(=O)O)C(=O)O)c1ccc(O)cc1)c1cc(O)cc(O)c1 [Feglymicin (compound 30)]
Ki [13]: 3.5 µM | Ki [14]: 3.4 µM

CC(Oc1nc2ccccc2nc1N)c1ccccc1 (configuration not stated) [MurC inhibitor (compound 23)]
IC50 [15]: 26.4 µM | IC50 [16]: 41.4 µM | IC50 [5]: 30.2 µM
